Results reported in patent US7956070B2, “Piperidines as chemokine modulators (CCR)” (AstraZeneca AB, priority 2004, dated 2011).
Read-outs that look alike come from different tables or passages of the source.

Key:
human H1 receptor = target: T1, human H1 receptor (Homo sapiens, UniProt P35367); experiment: Histamine H1 receptor binding, competition displacement of [3H]-pyrilamine; conditions: 1 nM [3H]-pyrilamine, membranes from recombinant CHO-K1 cells expressing the human H1 receptor, 1 hour at room temperature; read-out: H1 pKi (converted)
T1 construct: purchased Euroscreen SA, Brussels, Belgium ES-390-M; host or cells: recombinant CHO-K1 cells (membranes)
Method: Histamine H1 receptor binding activity of compounds of the invention was assessed by competition displacement of 1 nM [3H]-pyrilamine (Amersham, Bucks, Product code TRK 608, specific activity 30 Ci/mmol) to 2 μg membranes prepared from recombinant CHO-K1 cells expressing the human H1 receptor (Euroscreen SA, Brussels, Belgium, product code ES-390-M) in assay buffer (50 mM Tris pH 7.4 containing 2 mM MgCl2, 250 mM sucrose and 100 mM NaCl) for 1 hour at room temperature.
The following compounds of the invention gave inhibition of [3H]pyrilimine binding: […]

[1] = pKa measurement (Sirius GLpKa); format: physicochemical
Method: The pKa of a compound of formula (I) is measured using one of the following methodologies.
The apparatus used consists of a Sirius GLpKa instrument with DPAS (Dip Probe Absorption Spectroscopy) attachment. Key elements of the apparatus are a Sirius pH electrode, stirrer, titrant dispensing tubes, a multi-tipped dispenser, motor driven dispensing syringes, fibre optic UV probe and diode array detector. In addition, solutions in PTFE containers of ionic strength adjusted (0.10 M KCl) distilled water, nominally 0.50 M HCl, nominally 0.50 M KOH and 80% v/v methanol:water are also housed within the instrument. The titration solutions are constantly purged with oxygen free nitrogen. The reservoir for the potassium hydroxide solution is further protected from atmospheric contamination by a soda-lime guard-tube. Samples are placed in titration vessels which in turn are placed in a movable autosampler tray (maximum capacity 48 samples). The electrode, stirrer, dispensing tubing/tips and DPAS probe are housed on a movable, automated z-tower unit, which, controlled by software, positions itself in the appropriate titration vessel when titrating. The Sirius GLpKa instrument is directly connected to a dedicated PC supporting software for assay setup and subsequent data analysis. Assays are set up using the GlpKaControl software and results are analysed using the pKaLOGP and pKaUV software on the PC. The software also allows determination of multiple pKas using complex curve fitting analyses.
Method B: Potentiometric Method
Two types of potentiometric titrations may be performed in order to determine a compound's pKa/pKas; a purely aqueous titration (recommended for fairly water soluble compounds) and a cosolvent titration, where variable amounts of methanol are added to the sample in addition to ionic strength adjusted water (recommended for compounds which are not soluble in water). For the latter, a value for the compound's pKa in pure ionic strength adjusted water can be estimated by the Yasuda-Shedlovsky procedure. This involves measuring the apparent pKa of the compound at three known weight percentages of methanol:water (transposed into reciprocals of the dielectric constants of the medium, 1/εr) and then extrapolating to 0 wt % methanol (1/εr=[…]).
The GLpKa instrument unit also houses two aqueous wash containers (containing distilled water), a waste beaker (to dispense extraneous solutions into) and a container holding pH 7.00 buffer solution for the electrode to be immersed in during periods between titrations. Each time a set of titrations is carried out, these solutions are replaced. Position 1 in the autosampler contains a titration vessel containing pH 7.00 buffer solution (changed for each titration set). For each titration set to be run, position 2 houses a titration vessel into which ionic strength adjusted water is dispensed (typically 15.00 mL). This in turn is adjusted to pH 1.80 with aqueous HCl and then titrated to pH 12.20 by gradual addition of aqueous KOH. This is referred to as a blank titration and is employed by the pKaLogP software in order to calibrate the pH electrode and to standardise the HCl solution, using the so-called four-plus parameter procedure. Periodically, (typically every 3 months, or when the titration solutions run low) the titration solutions are replaced and the KOH solution standardised against potassium hydrogen phthalate using a standardisation procedure within the GLpKaControl software. Between 1-2 mg of each sample must be accurately weighed out. Samples are placed in provided glass titration vessels. The weight of compound must be entered into the GLpKaControl software. […]

[2] = ionic strength adjusted (0.10 M KCl) water, Method B: potentiometric method, read-out: pKa (measured using Method B)

T1 sequence (P35367 whole entry): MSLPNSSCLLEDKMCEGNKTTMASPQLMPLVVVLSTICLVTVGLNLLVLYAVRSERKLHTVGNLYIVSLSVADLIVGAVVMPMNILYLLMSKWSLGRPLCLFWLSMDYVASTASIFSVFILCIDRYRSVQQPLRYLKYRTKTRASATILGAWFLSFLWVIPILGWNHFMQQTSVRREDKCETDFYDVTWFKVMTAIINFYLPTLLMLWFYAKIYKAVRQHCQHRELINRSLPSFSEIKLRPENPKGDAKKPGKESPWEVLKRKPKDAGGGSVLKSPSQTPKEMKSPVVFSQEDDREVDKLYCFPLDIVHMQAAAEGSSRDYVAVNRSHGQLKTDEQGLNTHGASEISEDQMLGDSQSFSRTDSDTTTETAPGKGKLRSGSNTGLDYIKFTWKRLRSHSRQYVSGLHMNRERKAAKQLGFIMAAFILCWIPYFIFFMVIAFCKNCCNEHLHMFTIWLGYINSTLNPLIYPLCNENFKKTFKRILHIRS

Row | Compound | Ki (human H1 receptor) [nM] | pKa [1, 2] | pKa ([1]; method not stated, read-out: measured pKa)
1 | Cc1c(OC2CCN(C[C@H](O)CNC(=O)c3sc(=O)[nH]c3C(F)(F)F)CC2)ccc(Cl)c1Cl [Example 24, N-{(2R)-3-[4-(3,4-Dichloro-2-methylphenoxy)piperidin-1-yl]-2-hydroxypropyl}-2-oxo-4-(trifluoromethyl)-2,3-dihydro-1,3-thiazole-5-carboxamide] | 20 |  | 
2 | N#Cc1ccc(OC2CCN(C[C@H](O)CNC(=O)c3sc(=O)[nH]c3C(F)(F)F)CC2)cc1Cl [Example 27, N-{(2R)-3-[4-(3-Chloro-4-cyanophenoxy)piperidin-1-yl]-2-hydroxypropyl}-2-oxo-4-(trifluoromethyl)-2,3-dihydro-1,3-thiazole-5-carboxamide] | 251 |  | 
3 | CN(c1[nH]nnc1C(=O)NC[C@@H](O)CN1CCC(Oc2ccc(Cl)c(Cl)c2)CC1)S(C)(=O)=O [Example 39, N-{(2R)-3-[4-(3,4-Dichlorophenoxy)piperidin-1-yl]-2-hydroxypropyl}-5-[methyl(methylsulfonyl)amino]-1H-1,2,3-triazole-4-carboxamide] | 126 |  | 
4 | N#Cc1cc(C(=O)NC[C@@H](O)CN2CCC(Oc3ccc(Cl)c(Cl)c3)CC2)c(C2CC2)[nH]c1=O [Example 16, 5-Cyano-2-cyclopropyl-N-[(2R)-3-[4-(3,4-dichlorophenoxy)-1-piperidinyl]-2-hydroxypropyl]-1,6-dihydro-6-oxo-3-pyridinecarboxamide] | 25.1 | 3.8 | 
5 | CN(C[C@@H](O)CN1CCC(Oc2ccc(Cl)c(Cl)c2)CC1)C(=O)c1sc(=O)[nH]c1C(F)(F)F [Example 5, N-{(2S)-3-[4-(3,4-Dichlorophenoxy)piperidin-1-yl]-2-hydroxypropyl}-N-methyl-2-oxo-4-(trifluoromethyl)-2,3-dihydro-1,3-thiazole-5-carboxamide] | 126 |  | 
6 | Cc1c(OC2CCN(C[C@H](O)CNC(=O)c3ccc(Cl)c(C(=O)O)c3)CC2)ccc(Cl)c1Cl [Example 42, 2-Chloro-5-[({(2R)-3-[4-(3,4-dichloro-2-methylphenoxy)piperidin-1-yl]-2-hydroxypropyl}amino)carbonyl]benzoic acid] | 126 |  | 2.3
7 | Cc1[nH]nnc1C(=O)NC[C@@H](O)CN1CCC(Oc2ccc(Cl)c(Cl)c2)CC1 [Example 8, N-{(2R)-3-[4-(3,4-Dichlorophenoxy)piperidin-1-yl]-2-hydroxypropyl}-5-methyl-1H-1,2,3-triazole-4-carboxamide] | 15.8 | 7.5 | 
8 | O=C(NC[C@@H](O)CN1CCC(Oc2ccc(Cl)c(Cl)c2)CC1)c1oc(=O)[nH]c1C(F)(F)F [Example 37, N-{(2R)-3-[4-(3,4-Dichlorophenoxy)piperidin-1-yl]-2-hydroxypropyl}-2-oxo-4-(trifluoromethyl)-2,3-dihydro-1,3-oxazole-5-carboxamide] | 200 |  | 
9 | O=C(O)c1ccc(C(=O)NC[C@@H](O)CN2CCC(Oc3ccc(Cl)c(Cl)c3)CC2)c2ccccc12 [Example 20, 4-[({(2R)-3-[4-(3,4-Dichlorophenoxy)piperidin-1-yl]-2-hydroxypropyl}amino)-carbonyl]-1-naphthoic acid] | 200 |  | 
10 | CC(C)c1[nH]nnc1C(=O)NC[C@@H](O)CN1CCC(Oc2ccc(C#N)c(Cl)c2)CC1 [Example 31, N-{(2R)-3-[4-(3-Chloro-4-cyanophenoxy)piperidin-1-yl]-2-hydroxypropyl}-5-isopropyl-1H-1,2,3-triazole-4-carboxamide] | 158 |  | 
11 | O=C(NC[C@H](O)CN1CCC(Oc2ccc(Cl)c(Cl)c2)CC1)c1sc(=O)[nH]c1C(F)(F)F [Example 28, N-{(2S)-3-[4-(3,4-Dichlorophenoxy)piperidin-1-yl]-2-hydroxypropyl}-2-oxo-4-(trifluoromethyl)-2,3-dihydro-1,3-thiazole-5-carboxamide] | 39.8 |  | 
12 | Cn1c(C(=O)NC[C@@H](O)CN2CCC(Oc3ccc(Cl)c(Cl)c3)CC2)cc(=O)[nH]c1=O [Example 14, N-{(2R)-3-[4-(3,4-Dichlorophenoxy)piperidin-1-yl]-2-hydroxypropyl}-3-methyl-2,6-dioxo-1,2,3,6-tetrahydropyrimidine-4-carboxamide] | 126 |  | 
13 | CS(=O)(=O)Nc1cc(C(F)(F)F)c(C(=O)NC[C@@H](O)CN2CCC(Oc3ccc(Cl)c(Cl)c3)CC2)cn1 [Example 18, N-{(2R)-3-[4-(3,4-Dichlorophenoxy)piperidin-1-yl]-2-hydroxypropyl}-6-[(methylsulfonyl)amino]-4-(trifluoromethyl)nicotinamide] | 316 | 5.3 | 
14 | Cc1c(OC2CCN(C[C@H](O)CNC(=O)COc3cc(C(=O)O)ccc3Cl)CC2)ccc(Cl)c1Cl [Example 44, 4-Chloro-3-[2-({(2R)-3-[4-(3,4-dichloro-2-methylphenoxy)piperidin-1-yl]-2-hydroxypropyl}amino)-2-oxoethoxy]benzoic acid] | 12.6 |  | 
15 | Cc1c(OC2CCN(C[C@H](O)CNC(=O)c3ccc(Cl)c(OCC(=O)O)c3)CC2)ccc(Cl)c1Cl [Example 45, {2-Chloro-5-[({(2R)-3-[4-(3,4-dichloro-2-methylphenoxy)piperidin-1-yl]-2-hydroxypropyl}amino)carbonyl]phenoxy}acetic acid] | 63.1 |  | 
16 | O=C(NC[C@@H](O)CN1CCC(Oc2ccc(Cl)c(Cl)c2)CC1)c1sc(=O)[nH]c1-c1ccc(F)cc1 [Example 25, N-{(2R)-3-[4-(3,4-Dichlorophenoxy)piperidin-1-yl]-2-hydroxypropyl}-4-(4-fluorophenyl)-2-oxo-2,3-dihydro-1,3-thiazole-5-carboxamide] | 15.8 | 7.4 | 
17 | N#Cc1cc(C(=O)NC[C@@H](O)CN2CCC(Oc3ccc(Cl)c(Cl)c3)CC2)c(C(F)(F)F)[nH]c1=O [Example 10, 5-Cyano-N-{(2R)-3-[4-(3,4-dichlorophenoxy)piperidin-1-yl]-2-hydroxypropyl}-6-oxo-2-(trifluoromethyl)-1,6-dihydropyridine-3-carboxamide] | 126 |  | 
